Reference: patent US20110218103A1, “Fluoroalkyl-substituted 2-amidobenzimidazoles” (BAYER CROPSCIENCE AG, priority 2010, published 2011)

How the values were obtained:
Brassica napus (BRSNS) = test: Drought stress test on crop plants, spray application in greenhouse, visual damage rating; assay type: in vivo; conditions: mean of three results
Procedure: Seeds of monocotyledonous and dicotyledonous crop plants were placed in sandy loam in wood-fiber pots, covered with soil and cultivated in a greenhouse under good growth conditions. The test plants were treated at the early leaf stage (BBCH10-BBCH13). To ensure uniform water supply before commencement of stress, the potted plants were supplied with the maximum amount of water immediately beforehand by dam irrigation and, after application, transferred in plastic inserts in order to prevent subsequent, excessively rapid drying. The inventive compounds, formulated in the form of wettable powders (WP), wettable granules (WG), suspension concentrates (SC) or emulsion concentrates (EC), were sprayed onto the green parts of the plants as an aqueous suspension at an equivalent water application rate of 600 l/ha with addition of 0.2% wetting agent (agrotin). Substance application was followed immediately by stress treatment of the plants (cold or drought stress). For cold stress treatment, the plants were kept under the following controlled conditions: Drought stress was induced by gradual drying out under the following conditions: “day”: 14 hours with illumination at 26° C. “night”: 10 hours without illumination at 18° C. The duration of the respective stress phases was guided mainly by the state of the untreated, stressed control plants and thus varies from crop to crop. It was ended (by re-irrigating or transfer to a greenhouse with good growth conditions) as soon as irreversible damage is observed on the untreated, stressed control plants. In the case of dicotyledonous crops, for example oilseed rape and soya, the duration of the drought stress phase was between 3 and 5 days, in the case of monocotyledonous crops, for example wheat, barley or corn, between 6 and 10 days. The duration of the cold stress phase varied between 12 and 14 days. The end of the stress phase was followed by an approx. 5-7-day recovery phase, during which the plants were once again kept under good growth conditions in a greenhouse. In order to rule out any influence of the effects observed by any fungicidal action of the test compounds, it was additionally ensured that the tests proceed without fungal infection and without infection pressure. After the recovery phase had ended, the intensities of damage were rated visually compared to untreated, unstressed controls of the same age (in the case of drought stress) or the same growth stage (in the case of cold stress). The intensity of damage was first assessed as a percentage (100%=plants have died, 0%=like control plants). These values were then used to calculate the efficacy of the test compounds (=percentage reduction in the intensity of damage as a result of substance application) by the following formula: [formula] EF: efficacy (%) DVus: damage value of the untreated, stressed control DVts: damage value of the plants treated with test compound The tables below list mean values in each case from three results of the same test. Effects of selected compounds of the formula (I) under drought stress: BRSNS=Brassica napus

Zea mays (ZEAMX) = test: as above; assay type: in vivo; conditions: 25 g/ha, mean of three results
Procedure: Seeds of monocotyledonous and dicotyledonous crop plants were placed in sandy loam in wood-fiber pots, covered with soil and cultivated in a greenhouse under good growth conditions. The test plants were treated at the early leaf stage (BBCH10-BBCH13). To ensure uniform water supply before commencement of stress, the potted plants were supplied with the maximum amount of water immediately beforehand by dam irrigation and, after application, transferred in plastic inserts in order to prevent subsequent, excessively rapid drying. The inventive compounds, formulated in the form of wettable powders (WP), wettable granules (WG), suspension concentrates (SC) or emulsion concentrates (EC), were sprayed onto the green parts of the plants as an aqueous suspension at an equivalent water application rate of 600 l/ha with addition of 0.2% wetting agent (agrotin). Substance application was followed immediately by stress treatment of the plants (cold or drought stress). For cold stress treatment, the plants were kept under the following controlled conditions: Drought stress was induced by gradual drying out under the following conditions: “day”: 14 hours with illumination at 26° C. “night”: 10 hours without illumination at 18° C. The duration of the respective stress phases was guided mainly by the state of the untreated, stressed control plants and thus varies from crop to crop. It was ended (by re-irrigating or transfer to a greenhouse with good growth conditions) as soon as irreversible damage is observed on the untreated, stressed control plants. In the case of dicotyledonous crops, for example oilseed rape and soya, the duration of the drought stress phase was between 3 and 5 days, in the case of monocotyledonous crops, for example wheat, barley or corn, between 6 and 10 days. The duration of the cold stress phase varied between 12 and 14 days. The end of the stress phase was followed by an approx. 5-7-day recovery phase, during which the plants were once again kept under good growth conditions in a greenhouse. In order to rule out any influence of the effects observed by any fungicidal action of the test compounds, it was additionally ensured that the tests proceed without fungal infection and without infection pressure. After the recovery phase had ended, the intensities of damage were rated visually compared to untreated, unstressed controls of the same age (in the case of drought stress) or the same growth stage (in the case of cold stress). The intensity of damage was first assessed as a percentage (100%=plants have died, 0%=like control plants). These values were then used to calculate the efficacy of the test compounds (=percentage reduction in the intensity of damage as a result of substance application) by the following formula: [formula] EF: efficacy (%) DVus: damage value of the untreated, stressed control DVts: damage value of the plants treated with test compound The tables below list mean values in each case from three results of the same test. Effects of selected compounds of the formula (I) under drought stress: ZEAMX=Zea mays

## NC(=O)c1cccc2[nH]c(C(F)(F)C(F)(F)F)nc12 [1-2, 2-(pentafluoroethyl)-1H-benzimidazole-4-carboxamide]
Brassica napus (BRSNS); 25 g/ha
  EF (BRSNS), efficacy = percentage reduction in the intensity of damage: >5%
Zea mays (ZEAMX)
  EF (ZEAMX), efficacy = percentage reduction in the intensity of damage: >5%

## NC(=O)c1cccc2[nH]c(C(F)(F)C(F)(F)C(F)(F)F)nc12 [1-17]
Brassica napus (BRSNS); 50 g/ha
  EF (BRSNS), efficacy = percentage reduction in the intensity of damage: >5%
Zea mays (ZEAMX)
  EF (ZEAMX), efficacy = percentage reduction in the intensity of damage: >5%
